pIC50: −log10 of the molar value. Values belong to the compound of their own block, whether it stands above or below them.
Columns and labels:
[1] = molecular target: T1, CDK2/CyclinA2 (Homo sapiens, UniProt P24941); experiment: In vitro CDK-2 inhibitory activity (Kinase-Glo MAX kinase assay); type: biochemical; conditions: mean ± SD
T1 construct: purchased #79599
Text: (§1) The Assay Kits are designed to measure CDK2/CyclinA2 and VEGFR-2 (KDR) activities for screening and profiling applications, using Kinase-Glo® MAX as a detection reagent. The CDK-2 Assay Kit comes in a convenient 96-well format, with enough purified recombinant CDK2/CyclinA2 enzyme, CDK substrate peptide, ATP, and kinase assay buffer for 100 enzyme reactions, while the VEGFR-2 Assay Kit comes in a convenient 96-well format, with enough purified recombinant VEGFR-2 (KDR) enzyme, PTK substrate, ATP, and kinase assay buffer for 100 enzyme reactions. […] The CDK2/CyclinA2 and VEGFR-2 (KDR) activities at a single dose concentration of 10µM were performed, where the Kinase-Glo MAX luminescence kinase assay kit (Promega#V6071) was used. The compounds were diluted in 10% DMSO and 5 µL of the dilution was added to a 50 µL reaction so that the final concentration of DMSO was 1% in all of the reactions. All of the enzymatic reactions were conducted at 30 °C for 45 min. […] After the enzymatic reactions, 50 µL of Kinase-Glo® MAX Luminescence kinase assay solution was added to each reaction and the plates were incubated for 15 min at room temperature. Luminescence signal was measured using a Bio Tek Synergy 2 microplate reader.
(§2) Data were analyzed using one-way analysis of variance (ANOVA) for multiple comparison between all compounds followed by Tukey–Kramer post-ANOVA test. […]

[2] = molecular target: T2, CDK6/Cyclin D3 (Homo sapiens, UniProt Q00534); experiment: In vitro CDK-6 inhibitory activity (ADP-Glo kinase assay); type: biochemical; conditions: mean ± SD
T2 construct: purchased Promega V4489
T2 sequence (Q00534 whole entry): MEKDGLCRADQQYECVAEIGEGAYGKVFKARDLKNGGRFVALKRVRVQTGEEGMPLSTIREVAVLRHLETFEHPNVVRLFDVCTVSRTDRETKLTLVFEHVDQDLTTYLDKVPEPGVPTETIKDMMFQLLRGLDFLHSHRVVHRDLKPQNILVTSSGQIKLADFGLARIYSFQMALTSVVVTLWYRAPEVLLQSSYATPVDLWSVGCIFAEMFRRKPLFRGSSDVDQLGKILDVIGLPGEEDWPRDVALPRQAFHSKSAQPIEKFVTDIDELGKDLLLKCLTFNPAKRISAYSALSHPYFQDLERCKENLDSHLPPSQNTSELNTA
T2 sequence (P30281 whole entry partner): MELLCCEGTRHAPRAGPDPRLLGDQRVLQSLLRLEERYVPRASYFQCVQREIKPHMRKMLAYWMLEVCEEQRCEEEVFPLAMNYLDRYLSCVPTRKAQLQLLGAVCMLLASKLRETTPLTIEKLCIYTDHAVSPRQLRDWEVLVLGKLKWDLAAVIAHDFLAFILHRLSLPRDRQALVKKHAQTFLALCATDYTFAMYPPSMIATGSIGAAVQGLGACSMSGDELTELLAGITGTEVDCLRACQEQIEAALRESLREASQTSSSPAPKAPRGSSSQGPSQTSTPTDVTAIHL
Description: Data were analyzed using one-way analysis of variance (ANOVA) for multiple comparison between all compounds followed by Tukey–Kramer post-ANOVA test. The differences were considered statistically significant at p < 0.05.

[3] = molecular target: T3, VEGFR-2 (KDR) (Homo sapiens, UniProt P35968); experiment: In vitro VEGFR-2 inhibitory activity (Kinase-Glo MAX kinase assay); type: biochemical; conditions: mean ± SD
T3 construct: purchased #40325
T3 sequence (P35968 20-1356): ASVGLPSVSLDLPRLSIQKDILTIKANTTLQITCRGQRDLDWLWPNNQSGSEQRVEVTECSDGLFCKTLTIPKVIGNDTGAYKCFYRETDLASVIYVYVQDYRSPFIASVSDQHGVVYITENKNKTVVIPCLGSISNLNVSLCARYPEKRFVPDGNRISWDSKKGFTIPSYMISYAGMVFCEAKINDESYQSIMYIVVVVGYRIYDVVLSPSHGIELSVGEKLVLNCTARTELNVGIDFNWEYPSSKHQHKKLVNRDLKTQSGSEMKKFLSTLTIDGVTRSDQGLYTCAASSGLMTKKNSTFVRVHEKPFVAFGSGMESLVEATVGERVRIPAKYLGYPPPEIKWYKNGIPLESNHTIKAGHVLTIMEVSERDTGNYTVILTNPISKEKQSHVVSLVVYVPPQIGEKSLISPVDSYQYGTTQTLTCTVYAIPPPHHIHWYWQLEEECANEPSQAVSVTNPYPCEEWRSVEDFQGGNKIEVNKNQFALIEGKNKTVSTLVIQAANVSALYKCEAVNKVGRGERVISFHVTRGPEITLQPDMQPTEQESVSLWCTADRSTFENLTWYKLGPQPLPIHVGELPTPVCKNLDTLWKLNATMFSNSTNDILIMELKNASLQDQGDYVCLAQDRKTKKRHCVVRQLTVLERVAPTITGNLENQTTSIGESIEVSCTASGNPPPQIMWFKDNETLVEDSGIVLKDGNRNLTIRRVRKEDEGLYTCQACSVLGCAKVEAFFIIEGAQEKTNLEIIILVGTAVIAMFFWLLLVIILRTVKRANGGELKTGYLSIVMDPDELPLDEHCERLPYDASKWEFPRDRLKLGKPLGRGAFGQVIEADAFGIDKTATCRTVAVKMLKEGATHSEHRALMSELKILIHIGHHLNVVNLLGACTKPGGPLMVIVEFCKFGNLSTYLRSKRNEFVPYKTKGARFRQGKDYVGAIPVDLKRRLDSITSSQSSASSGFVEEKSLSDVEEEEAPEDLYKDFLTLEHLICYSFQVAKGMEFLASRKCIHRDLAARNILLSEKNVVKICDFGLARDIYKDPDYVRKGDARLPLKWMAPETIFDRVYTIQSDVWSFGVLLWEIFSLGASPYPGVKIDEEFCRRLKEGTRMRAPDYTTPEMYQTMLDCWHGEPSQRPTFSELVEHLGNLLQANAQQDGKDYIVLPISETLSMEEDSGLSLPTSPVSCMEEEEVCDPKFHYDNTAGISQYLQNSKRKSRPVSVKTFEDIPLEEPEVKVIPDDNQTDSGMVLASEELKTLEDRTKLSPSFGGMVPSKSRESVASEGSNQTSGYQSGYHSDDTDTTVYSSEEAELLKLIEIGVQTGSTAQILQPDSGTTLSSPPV
Text: as §1, §2

[4] = system: topoisomerase-1; conditions: cited from earlier work

Structure (SMILES): CC[C@H](CC[C@@H](C)[C@H]1CC[C@H]2[C@@H]3CC=C4C[C@@H](O)CC[C@]4(C)[C@H]3CC[C@]12C)C(C)C [Compound 1, β-sitosterol]
- pIC50 [1]: 6.24

- pIC50 [2]: 6.45
- pIC50 [3]: 6.71
Structure (SMILES): O=c1c(OC2OCC(O)C(O)C2O)c(-c2ccc(O)c(O)c2)oc2cc(O)cc(O)c12 (stereo not drawn) [Compound 10, quercetin 3-O-β-xyloside]

Structure (SMILES): O=c1cc(-c2ccc(O)c(O)c2)oc2cc(OC3O[C@@H](CO)[C@H](O)[C@@H](O)[C@@H]3O)cc(O)c12 (stereo partly drawn) [Compound 16, luteolin-7-O-β-glucoside]
- inhibitory activity against topoisomerase-1 [4]: especially poisonous

- pIC50 [1]: 6.62
Structure (SMILES): C[C@H]1[C@H](C)CC[C@]2(C(=O)O)CC[C@]3(C)C(=CC[C@@H]4[C@@]5(C)C[C@@H](O)[C@H](O)C(C)(C)[C@@H]5CC[C@]43C)[C@H]12 [Compound 3, corosolic acid]
